Results taken from patent US20220241409A1, “WATER SOLUBLE ADJUVANT AND COMPOSITION CONTAINING SAME” (Sumitomo Dainippon Pharma Co., Ltd., priority 2019, published 2022).

Tests used:
[1] = test system: mouse bone marrow-derived dendritic cell; assay: Activation of mouse bone marrow-derived dendritic cell, cytokine/chemokine production (Test 4); format: cell-based; conditions: 200 nmol/L, one day, compared with only DMSO
Experimental: Myeloid cells were collected from the femur and tibia of HLA-A*02:01 transgenic mouse (C57BL/6CrHLA-A2.1DR1), and then suspended in RPMI 1640 medium with 10% fetal bovine serum (FBS) and 10 ng/mL of GM-CSF. The dendritic cells in the myeloid cells were incubated at 37° C. under an atmosphere of 5% CO2 for induction of differentiation. Seven days after the incubation, the cells were collected. After observing the expression of CD11c on the cell surface by flow cytometry, the cells were cryopreserved. Cryopreserved mouse bone marrow-derived dendritic cells were reconstituted, suspended in RPMI 1640 medium with 10% FBS, and seeded on a U-bottom 96 well plate at 5×10^5 cells/well. The compound prepared in Example 3 was added in the presence of 0.1% (v/v) DMSO to the wells at a final concentration of 200 nmol/L. The plate was incubated at 37° C. under an atmosphere of 5% CO2. One day after the incubation, the culture supernatant was collected. The concentration of cytokine and chemokine (IL-1p, IL-6, IL-12p40, IL-12p70, IP-10, MIP-1α, MIP-1β, Rantes, and TNFα) which were included in each culture supernatant was measured with Milliplex Mouse Cytokine/Chemokine Magnetic Bead Panel kit (Millipore) and Luminex system in accordance with the manufacturer's protocol. […]

Antigen-Specific CTL = assay: Action of anti-PD-1 antibody in immune response of antigen-specific CTL for peptide and tumor cell (Test 13); format: in vivo, mouse; conditions: splenocyte of mice receiving vaccine b with Example 2 (325 ng per body, twice); antibody 37.5 μg/mL; culture with tumor cells and Peptide SEQ ID No. 1 about three days
Experimental: Vaccine b prepared like Test 8 was injected to a HLA-A*02:01 transgenic mouse intradermally at the tail base area in an amount for administering 300 μg of Compound of formula 4 per body and 225 μg of Peptide SEQ ID No. 3 per body. Or, a vaccine prepared by adding the compound prepared in Example 2 to vaccine b was injected to a HLA-A*02:01 transgenic mouse intradermally at the tail base area in an amount for administering 300 μg of Compound of formula 4 per body, 225 μg of Peptide SEQ ID No. 3 per body, and 325 ng of the compound prepared in Example 2 per body. The administrations were done twice, which had one week interval. One week after the final administration, the mice were sacrificed with CO2 gas, and then spleens removed from the mice. A splenocyte suspension was prepared from the spleens with CTM. And, like Test 11, Peptide SEQ ID No. 1 was pulsed to a part of the splenocyte, and the cell was mixed with LLC-HHD-WT1 tumor cell. To the mixed cells was added an isotype control antibody (Rat IgG2ax, BD Pharmingen) or anti-PD-1 antibody (clone 29F.1A12, Biolegend) at a final concentration of 37.5 μg/mL, and the mixture was cultured at 37° C. under an atmosphere of 5% CO2 for about three days. The concentration of mouse IFN-γ in the culture supernatant was measured with an ELISA kit.

[2] = test system: HLA-A*24:02 transgenic mouse; assay: In vivo adjuvant activity, CTL induction with vaccine e, IFNγ ELISPOT (Test 16); conditions: 0.4 nmol per body added to vaccine e versus no compound; twice
Experimental: The in vivo adjuvant activity of the compound of Example 2 was evaluated in the following procedure. To a vaccine prepared by mixing Peptide SEQ ID No. 18 prepared in Reference example 18 with Montanide ISA 51 VG (hereinafter, referred to as “vaccine e”) was added the compound prepared in Example 2 to prepare a vaccine. The vaccine was administered to a HLA-A*24:02 transgenic mouse, and the adjuvant activity of the vaccine was evaluated by the method of testing antigen-specific CTL induction. The TYAGCLSQIF in Peptide SEQ ID No. 18 corresponds to an antigen peptide derived from an HLA-A*24:02-restricted Or7c1 protein.
The character for inducing CTLs specific to the antigen peptide (SEQ ID No. 18) by vaccine e was evaluated by measuring whether IFNγ can be produced upon stimulation of splenocytes from the mouse with the peptide. In addition, the character for exerting in vivo adjuvant activity by the compound in Example 2 was evaluated by comparing the number of CTLs induced by vaccine e and the number of CTLs induced by the vaccine prepared by adding the compound prepared in Example 2 to vaccine e, and checking presence or absence of the increase on the number.
Specifically, Peptide of SEQ ID No. 18 was dissolved in DMSO, and then diluted with water for injection to concentrations of 3 mg/mL. […]

| Structure (SMILES) | yield of cytokine and chemokine (IL-1β, IL-6, IL-12p40, IL-12p70, IP-10, MIP-1α, MIP-1β, Rantes, TNFα) [1] | amount of IFN-γ produced from the CTL with anti-PD-1 antibody relative to isotype control antibody (Antigen-Specific CTL) [times] | CTL counts responsive to Peptide SEQ ID No. 18 [2] |
| --- | --- | --- | --- |
| CCCCOc1nc(N)c2[nH]c(=O)n(Cc3ccc(CN(C)CCOCCOCCOCCOCCO)cc3)c2n1 [Example 3, 6-amino-2-butoxy-9-{[4-(16-hydroxy-2-methyl-5,8,11,14-tetraoxa-2-azahexadecan-1-yl)phenyl]methyl}-7,9-dihydro-8H-purin-8-one] | higher | – | – |
| CCCCOc1nc(N)c2[nH]c(=O)n(Cc3ccc(CN(C)CCOCCOCCOCCOCCO)nc3)c2n1 [Example 2, 6-amino-2-butoxy-9-{[6-(16-hydroxy-2-methyl-5,8,11,14-tetraoxa-2-azahexadecan-1-yl)pyridin-3-yl]methyl}-7,9-dihydro-8H-purin-8-one-trifluoroacetate] | – | 4 | more |
